Laboratory results taken from patent US11639350B2, “Heteroaryldihydropyrimidine derivatives and methods of treating hepatitis B infections” (Janssen Pharmaceutica NV, priority 2018, dated 2023).

How the values were obtained:
HepG2.2.15 cells = test: Cytotoxicity determination in HepG2.2.15 cells (CCK-8); assay type: cell-based; conditions: 6 days of compound treatment, CCK-8, highest concentration 100 μM
Procedure, shortened: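 HepG2.2.15 cells seeded at 5,000 cells/well in 2% FBS medium, incubated overnight at 37° C., then treated 6 days with compounds (8 points, 3-fold dilutions, top 100 μM), medium refreshed once midway. CCK-8 added for 2.5 h; A450 read against 630 nm reference; CC50 calculated, averaged over repeats.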

HBV = HBV inhibitory activity: HBV DNA in the culture medium of HepG2.2.15 cells by q-PCR; assay type: cell-based; conditions: HepG2.2.15 cells, 6 days of compound treatment, HBV DNA in culture medium by q-PCR, highest concentration 10 μM; read-out: EC50
Procedure, shortened: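 HepG2.2.15 cells in 2% FBS medium, 40,000 per well, treated 6 days with compound (medium refreshed once), eight 3-fold dilutions from 10 μM top. HBV DNA extracted from culture medium and quantified by q-PCR; EC50 averaged over repeats. Cytotoxicity run in parallel at 5,000 cells per well, top 100 μM, giving CC50.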

## COC(=O)C1=C(C2CCCN(S(C)(=O)=O)C2)NC(c2nccs2)=NC1c1ccc(F)cc1Cl (single isomer, unassigned) [Compound 33A, Methyl 4-(2-chloro-4-fluorophenyl)-6-(1-(methylsulfonyl)piperidin-3-yl)-2-(thiazol-2-yl)-1,4-dihydropyrimidine-5-carboxylate]
HepG2.2.15 cells
  CC50: 78100 nM
HBV
  EC50: 190 nM

## COC(=O)C1=C(C2COC(CO)C2)NC(c2nccs2)=NC1c1cccc(F)c1Cl (single isomer, unassigned) [Compound 219C, Methyl 4-(2-chloro-3-fluorophenyl)-6-(5-(hydroxymethyl)-tetrahydrofuran-3-yl)-2-(thiazol-2-yl)-1,4-dihydropyrimidine-5-carboxylate]
HepG2.2.15 cells
  CC50: 10300 nM
HBV
  EC50: 176 nM

## COC(=O)C1=C(C2CCN(S(=O)(=O)C3CC(C)(C(=O)O)C3)CC2)NC(c2nccs2)=NC1c1ccc(F)cc1Br (single isomer, unassigned) [Compound 410D, cis-3-((4-(6-(2-Bromo-4-fluorophenyl)-5-(methoxycarbonyl)-2-(thiazol-2-yl)-3,6-dihydropyrimidin-4-yl)piperidin-1-yl)sulfonyl)-1-methylcyclobutanecarboxylic Acid]
HepG2.2.15 cells
  CC50: 23700 nM
HBV
  EC50: 43 nM

## COC(=O)C1=C(C2CCN(S(=O)(=O)[C@H]3C[C@H](C(=O)O)C3)CC2)NC(c2nccs2)=NC1c1ccc(F)c(F)c1Cl (single isomer, unassigned) [Compound 232X, (trans)-3-((4-(6-(2-Chloro-3,4-difluorophenyl)-5-(methoxycarbonyl)-2-(thiazol-2-yl)-3,6-dihydropyrimidin-4-yl)piperidin-1-yl)sulfonyl)cyclobutanecarboxylic Acid]
HepG2.2.15 cells
  CC50: 70000 nM
HBV
  EC50: 105 nM

## COC(=O)C1=C(C23CC(N(C[C@@H](O)CO)S(C)(=O)=O)(C2)C3)NC(c2nccs2)=NC1c1ccc(F)cc1Cl (single isomer, unassigned) [Compound 376D]
HepG2.2.15 cells
  CC50: 97300 nM
HBV
  EC50: 35 nM

## COC(=O)C1=C(C2CCCOC2)NC(c2nccs2)=NC1c1ccc(F)cc1Cl (single isomer, unassigned) [Compound 48D, Methyl 4-(2-chloro-4-fluorophenyl)-6-(tetrahydro-2H-pyran-3-yl)-2-(thiazol-2-yl)-1,4-dihydropyrimidine-5-carboxylate]
HepG2.2.15 cells
  CC50: > 100000 nM
HBV
  EC50: 210 nM

## COC(=O)C1=C(C2CCC(NC(C)=O)C2)NC(c2nccs2)=NC1c1cccc(F)c1Cl (single isomer, unassigned) [Compound 62D, Methyl 6-(3-acetamidocyclopentyl)-4-(2-chloro-3-fluorophenyl)-2-(thiazol-2-yl)-1,4-dihydropyrimidine-5-carboxylate]
HepG2.2.15 cells
  CC50: 75100 nM
HBV
  EC50: 892 nM

## CCOC(=O)C1=C(C2CCN(S(=O)(=O)C3CC(C)(C(=O)O)C3)CC2)NC(c2nccs2)=NC1c1cccc(F)c1Br (single isomer, unassigned) [Compound 414C, (trans)-3-((4-(6-(2-Bromo-3-fluorophenyl)-5-(ethoxycarbonyl)-2-(thiazol-2-yl)-3,6-dihydropyrimidin-4-yl)piperidin-1-yl)sulfonyl)-1-methylcyclobutanecarboxylic Acid]
HepG2.2.15 cells
  CC50: 17300 nM
HBV
  EC50: 19 nM

## COC(=O)C1=C(C2CCN(S(=O)(=O)CC3(C)CCC(C(=O)O)CC3)CC2)NC(c2nccs2)=NC1c1ccc(F)c(F)c1Cl (single isomer, unassigned) [Compound 452B, (trans)-4-(((4-(6-(2-Chloro-3,4-difluorophenyl)-5-(methoxycarbonyl)-2-(thiazol-2-yl)-3,6-dihydropyrimidin-4-yl)piperidin-1-yl)sulfonyl)methyl)-4-methylcyclohexanecarboxylic Acid]
HepG2.2.15 cells
  CC50: 7700 nM
HBV
  EC50: 5 nM

## COC(=O)C1=C(C2CCC(C(=O)O)C2)NC(c2nccs2)=NC1c1ccc(F)cc1Cl (single isomer, unassigned) [Compound 72F, 3-(6-(2-Chloro-4-fluorophenyl)-5-(methoxycarbonyl)-2-(thiazol-2-yl)-3,6-dihydropyrimidin-4-yl)cyclopentanecarboxylic Acid]
HepG2.2.15 cells
  CC50: 30000 nM
HBV
  EC50: 58 nM

## COC(=O)C1=C(C2CCN(S(=O)(=O)C3CC(C)(C(=O)O)C3)CC2)NC(c2nccs2)=NC1c1ccc(F)cc1C (stereo not drawn) [Compound 447C, (trans)-3-((4-(6-(4-Fluoro-2-methylphenyl)-5-(methoxycarbonyl)-2-(thiazol-2-yl)-3,6-dihydropyrimidin-4-yl)piperidin-1-yl)sulfonyl)-1-methylcyclobutanecarboxylic Acid]
HepG2.2.15 cells
  CC50: 48200 nM
HBV
  EC50: 80 nM

## COC(=O)C1=C(C2CCCN(S(C)(=O)=O)C2)NC(c2nccs2)=NC1c1ccc(F)cc1Cl (single isomer, unassigned) [Compound 33C, Methyl 4-(2-chloro-4-fluorophenyl)-6-(1-(methylsulfonyl)piperidin-3-yl)-2-(thiazol-2-yl)-1,4-dihydropyrimidine-5-carboxylate]
HepG2.2.15 cells
  CC50: 37700 nM
HBV
  EC50: 484 nM

## COC(=O)C1=C(C2CCC(=O)N2)NC(c2nccs2)=NC1c1cccc(F)c1Cl (single isomer, unassigned) [Compound 75D, Methyl 4-(2-chloro-3-fluorophenyl)-6-(5-oxopyrrolidin-2-yl)-2-(thiazol-2-yl)-1,4-dihydropyrimidine-5-carboxylate]
HepG2.2.15 cells
  CC50: 10200 nM
HBV
  EC50: 45 nM

## COC(=O)C1=C(C2CCN(S(=O)(=O)C3CC(C)(C(=O)O)C3)CC2)NC(c2nccs2)=NC1c1cccc(F)c1Br (stereo not drawn) [Compound 278C, (trans)-3-((4-(6-(2-bromo-3-fluorophenyl)-5-(methoxycarbonyl)-2-(thiazol-2-yl)-3,6-dihydropyrimidin-4-yl)piperidin-1-yl)sulfonyl)-1-methylcyclobutanecarboxylic Acid]
HepG2.2.15 cells
  CC50: 18900 nM
HBV
  EC50: 45 nM

## COC(=O)C1=C(C2CCC(NC(C)=O)C2)NC(c2nccs2)=NC1c1ccc(F)c(F)c1Cl (single isomer, unassigned) [Compound 300D, Methyl 6-(−3-acetamidocyclopentyl)-4-(2-chloro-3,4-difluorophenyl)-2-(thiazol-2-yl)-1,4-dihydropyrimidine-5-carboxylate]
HepG2.2.15 cells
  CC50: 12600 nM
HBV
  EC50: 14 nM

## CCOC(=O)C1=C(C2CCN(S(=O)(=O)C3CC(C)(C(=O)O)C3)CC2)NC(c2nccs2)=NC1c1cccc(F)c1Br (single isomer, unassigned) [Compound 414D, (cis)-3-((4-(6-(2-Bromo-3-fluorophenyl)-5-(ethoxycarbonyl)-2-(thiazol-2-yl)-3,6-dihydropyrimidin-4-yl)piperidin-1-yl)sulfonyl)-1-methylcyclobutanecarboxylic Acid]
HepG2.2.15 cells
  CC50: 16300 nM
HBV
  EC50: 39 nM

## COC(=O)C1=C(C2CCN(S(=O)(=O)CC3(C)CCC(C(=O)O)CC3)CC2)NC(c2nccs2)=NC1c1ccc(F)c(F)c1Cl (single isomer, unassigned) [Compound 452A, (cis)-4-(((4-(6-(2-Chloro-3,4-difluorophenyl)-5-(methoxycarbonyl)-2-(thiazol-2-yl)-3,6-dihydropyrimidin-4-yl)piperidin-1-yl)sulfonyl)methyl)-4-methylcyclohexanecarboxylic Acid]
HepG2.2.15 cells
  CC50: 9700 nM
HBV
  EC50: 6 nM

## CCCS(=O)(=O)N1CCC(C2=C(C(=O)OC)C(c3ccc(F)cc3Cl)N=C(c3nccs3)N2)C1 (single isomer, unassigned) [Compound 256A, Methyl 4-(2-chloro-4-fluorophenyl)-6-(−1-(propylsulfonyl)pyrrolidin-3-yl)-2-(thiazol-2-yl)-1,4-dihydropyrimidine-5-carboxylate]
HepG2.2.15 cells
  CC50: > 100000 nM
HBV
  EC50: 82 nM

## COC(=O)C1=C(C2CCCC(C(=O)O)CC2)NC(c2nccs2)=NC1c1ccc(F)cc1Cl (single isomer, unassigned) [Compound 95E, 4-(6-(2-Chloro-4-fluorophenyl)-5-(methoxycarbonyl)-2-(thiazol-2-yl)-3,6-dihydropyrimidin-4-yl)cycloheptanecarboxylic Acid]
HepG2.2.15 cells
  CC50: 75000 nM
HBV
  EC50: 141 nM

## CCOC(=O)C1=C(C2CCN(S(=O)(=O)C3CC(C)(C(=O)O)C3)CC2)NC(c2nccs2)=NC1c1ccc(F)cc1Br (single isomer, unassigned) [Compound 282C, (trans)-3-((4-(−6-(2-Bromo-4-fluorophenyl)-5-(ethoxycarbonyl)-2-(thiazol-2-yl)-3,6-dihydropyrimidin-4-yl)piperidin-1-yl)sulfonyl)-1-methylcyclobutanecarboxylic Acid]
HepG2.2.15 cells
  CC50: 15700 nM
HBV
  EC50: 15 nM

## COC(=O)C1=C(C2CCN(S(=O)(=O)CC(O)CO)CC2)NC(c2nccs2)=NC1c1ccc(F)cc1Cl (single isomer, unassigned) [Compound 305B, Methyl 4-(2-chloro-4-fluorophenyl)-6-(1-((2,3-dihydroxypropyl)sulfonyl)piperidin-4-yl)-2-(thiazol-2-yl)-1,4-dihydropyrimidine-5-carboxylate]
HepG2.2.15 cells
  CC50: 34500 nM
HBV
  EC50: 25 nM

## COC(=O)C1=C(C2CCN(S(C)(=O)=O)CC2)NC(c2nccs2)=NC1c1ccc(F)cc1Br (single isomer, unassigned) [Compound 120B, Methyl 4-(2-bromo-4-fluorophenyl)-6-(1-(methylsulfonyl)-piperidin-4-yl)-2-(thiazol-2-yl)-1,4-dihydropyrimidine-5-carboxylate]
HepG2.2.15 cells
  CC50: 16300 nM
HBV
  EC50: 154 nM

## COC(=O)C1=C(C2CCN(S(=O)(=O)C3CC(O)C3)CC2)NC(c2nccs2)=NC1c1ccc(F)cc1Cl (single isomer, unassigned) [Compound 335B, Methyl 4-(2-chloro-4-fluorophenyl)-6-(1-((3-hydroxycyclobutyl)sulfonyl)piperidin-4-yl)-2-(thiazol-2-yl)-1,4-dihydropyrimidine-5-carboxylate]
HepG2.2.15 cells
  CC50: 15200 nM
HBV
  EC50: 13 nM
